Experimental data taken from patent US7749976B2, “Isolated PTPMT1 protein which mediates insulin production and uses thereof” (The Regents of the University of California, priority 2005, dated 2010).
Marks after values point to notes of the source that are not given here.

Legend:
PLIP [1] = target: T1, PLIP (Mus musculus, UniProt Q66GT5); experiment: Phosphatase activity of various PTPs (malachite green / radiolabeled protein substrates); format: biochemical, murine; settings: for Phosphatase activity, PLIP: mole of phosphate released/min/mol of enzyme, pH 5.5, triplicate, this study
T1 construct: ligating a PCR product encoding full-length PLIP; made in house; host or cells: Escherichia coli BL21 (DE3) CodonPlus RIL
T1 sequence (Q66GT5 32-193): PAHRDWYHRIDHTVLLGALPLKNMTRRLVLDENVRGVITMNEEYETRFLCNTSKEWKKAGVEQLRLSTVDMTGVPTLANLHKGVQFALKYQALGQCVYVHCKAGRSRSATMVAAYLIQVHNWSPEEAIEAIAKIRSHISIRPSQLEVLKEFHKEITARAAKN
Description: Recombinant murine PLIP was expressed as a fusion protein with N-terminal GST and 6-His tags in Escherichia coli BL21 (DE3) CodonPlus RIL cells (Stratagene). The expression construct was assembled by ligating a PCR product encoding full-length PLIP into the 5′-EcoR1 and 3′-Xho1 sites of a modified pET41 vector (pSJ6), kindly provided by Zhaohui Xu (University of Michigan). […] Cultures were then chilled on ice for 20 min, supplied with fresh antibiotics, induced with IPTG to a final concentration of 0.4 mM, and allowed to grow overnight @ 25° C., as previously described (Taylor and Dixon, 2003). All subsequent steps were performed @ 4° C. The cultures were pelleted by spinning @ 6000 rpm for 10 min in a Sorvall GSA rotor, resuspended in 30 ml of buffer (20 mM Imidazole, 50 mM Tris pH 7.4, 300 mM NaCl) with Complete protease inhibitors (Roche), and lysed via French Press. Insoluble material was removed by centrifugation @ 50,000 rpm for 30 min. The fusion protein was purified from the soluble supernatant first over Ni^2+ agarose beads, and then by successive separation on Superdex 75 and 200 gel filtration columns (Amersham). The resulting protein was concentrated, flash frozen in liquid nitrogen, and stored @−80° C. in 25% glycerol, 2 mM EDTA, and 2 mM DTT until use.
(§1) Di-C8 phosphoinosites (Echelon) and Dioleoyl-phosphatidylserine (Sigma) were dried together in a Speed Vac and resuspended via sonication in 18 μl assay buffer (100 mM sodium acetate, 50 mM bis-Tris, 50 mM Tris (pH 5.5), 10 mM DTT) to final concentrations of 50 μM and 500 μM, respectively. After prewarming at 37° C. for 5 min, reactions were initiated by the addition of 20 to 2000 ng of GST-PLIP diluted in assay buffer containing 1.0 mg/ml gelatin. Reactions were quenched after 5-30 min by the addition of 20 μl 0.1 M N-ethylmaleimide, and spun at 18,000×g for 10 min to sediment the lipid aggregates. Twenty-five microliters of the supernatant was added to 50 μl of malachite green reagent and vortexed. Samples were allowed to sit for 40 minutes for color development before measuring absorbance at 620 nm. Inorganic phosphate release was quantitated by comparison to a standard curve of KH2PO4 in dH2O.
(§2) Assays using radiolabeled protein substrates or pNPP were carried in assay buffer containing 50 mM sodium acetate, 25 mM bis-Tris, 25 mM Tris, and 2 mM DTT at pH 5.5 (GST-PLIP), 6.0 (VHR), or 7.0 (TC-PTP), at 30° C. Radiolabeled proteins and pNPP were prepared and assayed as previously reported (Taylor et al., 1997).

PTEN = PTEN (Homo sapiens, UniProt P60484); experiment: Phosphatase activity of various PTPs; format: biochemical; settings: for Phosphatase activity, PTEN: phosphoinositide substrates, this study
MTM1 [2] = target: T2, MTM1 (Homo sapiens, UniProt Q13496); settings: Ref. 32; cited from earlier work
T2 sequence (Q13496 1-603): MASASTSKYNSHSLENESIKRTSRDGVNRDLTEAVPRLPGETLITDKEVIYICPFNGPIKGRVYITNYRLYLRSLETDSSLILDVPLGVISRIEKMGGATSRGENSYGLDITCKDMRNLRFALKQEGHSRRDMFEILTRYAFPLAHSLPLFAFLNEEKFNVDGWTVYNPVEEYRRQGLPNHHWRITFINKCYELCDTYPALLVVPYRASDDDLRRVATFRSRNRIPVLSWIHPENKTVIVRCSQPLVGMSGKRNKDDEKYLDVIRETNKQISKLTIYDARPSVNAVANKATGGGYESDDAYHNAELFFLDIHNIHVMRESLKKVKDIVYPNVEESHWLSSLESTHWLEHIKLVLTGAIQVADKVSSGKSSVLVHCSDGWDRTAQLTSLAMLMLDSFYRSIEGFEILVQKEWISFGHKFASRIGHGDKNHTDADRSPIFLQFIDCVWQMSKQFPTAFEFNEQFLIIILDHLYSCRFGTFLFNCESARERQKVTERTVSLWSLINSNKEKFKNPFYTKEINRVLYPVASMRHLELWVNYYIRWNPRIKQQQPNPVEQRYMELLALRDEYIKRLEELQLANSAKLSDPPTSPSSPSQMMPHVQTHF

PLIP [3] = target: T1, PLIP; experiment: Activity of PLIP against water soluble PI(5)P derivatives of varying acyl chain length; format: biochemical, murine; settings: water soluble substrate
PLIP [4] = target: T1, PLIP; experiment: Kinetic analysis of PLIP phosphatase activity (saturation kinetics); format: biochemical, murine
Description: as §2
To further explore PLIP's propensity to act as a protein phosphatase, a kinetic analysis of its activity toward the artificial phosphotyrosine analog, para-nitrophenyl phosphate (pNPP), alongside with di-C8 PI(5)P were performed (Taylor et al., 1997). FIG. 3 illustrates the kinetic analysis of PLIP phosphatase activity. Saturation kinetics for PLIP against pNPP (A) and water-soluble di-C8 PI(5)P (B) are shown. V (reaction velocity) is in units of pmol/(min μg).

TC-PTP = target: T3, TC-PTP (Homo sapiens, UniProt P17706); experiment: Phosphatase activity of various PTPs (malachite green / radiolabeled protein substrates); format: biochemical
T3 sequence (P17706 1-415): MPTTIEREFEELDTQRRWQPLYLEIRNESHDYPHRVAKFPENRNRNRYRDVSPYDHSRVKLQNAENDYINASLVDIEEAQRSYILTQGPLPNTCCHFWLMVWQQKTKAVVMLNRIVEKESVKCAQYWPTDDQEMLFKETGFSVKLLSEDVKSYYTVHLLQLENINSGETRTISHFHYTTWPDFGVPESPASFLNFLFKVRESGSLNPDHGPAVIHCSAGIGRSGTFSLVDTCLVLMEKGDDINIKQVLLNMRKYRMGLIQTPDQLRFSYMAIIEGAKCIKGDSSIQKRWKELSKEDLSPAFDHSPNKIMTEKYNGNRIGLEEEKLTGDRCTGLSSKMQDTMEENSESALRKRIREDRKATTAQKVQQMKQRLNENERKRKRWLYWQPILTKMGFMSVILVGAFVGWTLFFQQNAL
Description: as §1, §2
(§3) Due to the only recent emergence of PI(5)P as a known signaling molecule, few PTP's have been tested for activity against this substrate. To ensure that activity against PI(5)P is not a common feature of PTP's, membrane-bound di-C8 PI(5)P was assayed using a known tyrosine-specific PTP (TC-PTP) and a known dual-specific PTP (VHR) (Ishibashi et al., 1992; Zhao et al., 1992; Ruzzene et al., 1993; Zhou et al., 1994; Denu et al., 1995).

VHR = VHR (Homo sapiens, UniProt P51452); experiment: as above; format: biochemical
Description: as §1, §2, §3

MTM1 [5] = target: T2, MTM1; experiment: Phosphatase activity of various PTPs; format: biochemical
[6] = mole of phosphate released/min/mol of enzyme, triplicate, this study

PTEN, sequence (P60484 whole entry, species assumed): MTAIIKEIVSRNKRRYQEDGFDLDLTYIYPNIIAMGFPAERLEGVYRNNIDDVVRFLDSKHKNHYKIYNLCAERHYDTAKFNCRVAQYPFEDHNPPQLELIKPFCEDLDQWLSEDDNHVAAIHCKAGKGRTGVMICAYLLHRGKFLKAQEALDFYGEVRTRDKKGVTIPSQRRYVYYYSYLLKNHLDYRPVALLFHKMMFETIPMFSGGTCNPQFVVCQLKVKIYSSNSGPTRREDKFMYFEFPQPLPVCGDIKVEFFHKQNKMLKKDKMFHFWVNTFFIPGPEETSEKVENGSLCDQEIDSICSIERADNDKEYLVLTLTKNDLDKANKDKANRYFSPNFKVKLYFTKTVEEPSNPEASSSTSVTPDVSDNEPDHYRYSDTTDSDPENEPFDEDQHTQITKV
VHR, sequence (P51452 whole entry, species assumed): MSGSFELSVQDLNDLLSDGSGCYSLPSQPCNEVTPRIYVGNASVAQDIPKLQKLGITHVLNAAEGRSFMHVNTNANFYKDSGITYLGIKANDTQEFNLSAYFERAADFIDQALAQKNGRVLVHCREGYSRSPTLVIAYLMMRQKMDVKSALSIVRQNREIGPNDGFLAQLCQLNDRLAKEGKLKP

What does the source list for `CCCCCCCC(=O)OC[C@H](COP(=O)(O)O[C@@H]1[C@H](O)[C@H](OP(=O)(O)O)[C@@H](O)[C@H](O)[C@H]1O)OC(=O)CCCCCCC` [PI (3) P]?
Phosphatase activity, PLIP (PLIP [1]): 1.3^b mol/(min mol); Phosphatase activity, PTEN (PTEN): 77.9^b mol/(min mol); Phosphatase activity, MTM1 (MTM1 [2]): 4470^d mol/(min mol)

Which “Fold increase in PLIP activity versus inositol (1,5)P2” value (PLIP [3]) does the source give for `CCCC(=O)OCC(COP(=O)(O)OC1C(O)C(O)C(O)C(OP(=O)(O)O)C1O)OC(=O)CCC` (stereo not drawn) [di-C4 PI(5)P] here?
The value was 10 fold.

Which “Phosphatase activity, PLIP” value (PLIP [1]) does the source give for `CCCCCCCC(=O)OC[C@H](COP(=O)(O)OC1[C@H](O)[C@H](OP(=O)(O)O)C(OP(=O)(O)O)[C@H](OP(=O)(O)O)[C@H]1O)OC(=O)CCCCCCC` (stereo partly drawn) [PI (3, 4, 5) P3] here?
The value was 3.1^b mol/(min mol).

What about the “PTEN fold preference over PI(3,5)P2” value (PTEN; di-C8 PIs in lipid bilayer with phosphatidylserine carrier lipid) of the same compound?
Its value is 1.8 fold.

What about the “Phosphatase activity, PTEN” value (PTEN) of the same compound?
The value was 346^b mol/(min mol).

What about the “Phosphatase activity, MTM1” value (MTM1 [2]) of the same compound?
Its value is 2.1^d mol/(min mol).

Which results are given for `O=[N+]([O-])c1ccc(OP(=O)(O)O)cc1` [pNPP, para-nitrophenyl phosphate]?
Km fold higher than Km for di-C8 PI(5)P (PLIP [4]): more than 150 fold; Km (PLIP [4]; PLIP against pNPP): 5900 µM

Which “PLIP activity, fold lower than against PI(5)P” value (PLIP [1]; radiolabeled protein substrates) does the source give for casein here?
The value was “approximately 1000 fold”.

With “phosphatidylinositol-5 phosphate [PI (5) P]” as the compound, how does the “TC-PTP activity” value (TC-PTP; membrane-bound di-C8 PI(5)P) read?
The value was “barely detectable above background”.

What about the “Phosphatase activity, TC-PTP” value (TC-PTP; [6]) of the same compound?
The value was ~0.0^b mol/(min mol).

And the “VHR activity” value (VHR; membrane-bound di-C8 PI(5)P)?
The value was “barely detectable above background”.

What about the “Phosphatase activity, VHR” value (VHR; [6]) of the same compound?
The value was ~0.0^b mol/(min mol).

And the “PLIP activity, fold greater than against PI(3,5)P2” value (PLIP [1]; di-C8 PI's in lipid bilayer with phosphatidylserine carrier lipid)?
The value was 44 fold.

And the “Phosphatase activity, PLIP” value (PLIP [1])?
The value was 135^b mol/(min mol).

And the “PTEN: fold less efficiency than toward preferred substrate” value (PTEN)?
The value was 17 fold.

And the “Phosphatase activity, PTEN” value (PTEN)?
Its value is 20.4^b mol/(min mol).

What about the “MTM1: fold less efficiency than toward preferred substrate” value (MTM1 [5]) of the same compound?
The value was 200 fold.

And the Km (PLIP [4]; PLIP against water-soluble di-C8 PI(5)P)?
The Km was 37.5 µM.

And the “Fold increase in PLIP activity versus di-C4 PI(5)P” value (PLIP [3])?
Its value is 10 fold.

What about the “Phosphatase activity, MTM1” value (MTM1 [2]) of the same compound?
The value was 22.7^d mol/(min mol).

For `Nc1ncnc2c1ncn2[C@@H]1O[C@H](COP(=O)(O)OP(=O)(O)OP(=O)(O)O)[C@@H](O)[C@H]1O` [ATP], which “ATPase activity of PTPMT1 in vitro” value (PLIP [1]) is on record?
The value was “extremely poor”.
